{"source": "patent US20140171415A1", "about": "“FUNNY CURRENT (IF) INHIBITORS FOR USE IN A METHOD OF TREATING AND PREVENTING HEART DISEASE IN CANINE” (Boehringer Ingelheim Vetmedica GmbH, priority 2012, published 2014)", "key": {"conscious dogs": {"system": "conscious dogs", "experiment": "Heart rate and arterial blood pressure by telemetry in conscious dogs", "assay_type": "in vivo, dog", "method": "Heart rate (HR) and arterial blood pressure (BP) were measured in conscious dogs using telemetry methodology. They received daily oral doses of 0.3 mg/kg over 5 days. HR measured prior drug administration was reduced from 64.0±6.81 beats per minute (bpm) to 50.5±5.54 bpm on day 5. maximal effect on HR were seen between 1.5 and 3.5 hours post-dosing and HR reached values between 45 and 53 bpm. No effect on arterial BP was seen."}, "anesthetized dogs": {"system": "anesthetized dogs", "experiment": "Cardiovascular and electrocardiographic effects in anesthetized dogs", "assay_type": "in vivo, dog", "method": "Cardiovascular and Electrocardiographic Effects of Cilobradine (DKAH 3 CL) in Dogs:\nThe dose of 0.05 mg/kg reduced spontaneous HR by 23% whereas 0.1 mg/kg i.v. reduced HR by 42%. Systolic and diastolic pressure was not affected. The effective refractory times of the sinus and atrioventricular (AV) node increased with 0.05 mg/kg by 31% and 30% respectively."}, "Ih channel": {"system": "Ih channel", "conditions": "literature: Neuroscience 1994 (zatebradine), British Journal of Pharmacology 1998 (cilobradine); cited from earlier work"}, "[1]": {"system": "conscious, chronically instrumented dogs", "experiment": "Hemodynamic action in conscious, chronically instrumented dogs", "assay_type": "in vivo, dog", "conditions": "2.5 mg/kg orally", "text": "Hyodynamic Action in Conscious, Chronically Instrumented Dogs:\nHR dropped by up to 40% while blood pressure was not affected. Left ventricular end-diastolic pressure rose. This effect on preload may be explained by prolongation of the filling period due to prolongation of diastolic duration. Renal blood flow was maintained and coronary blood flow decreased by up to 40% most likely as a consequence of a drop in myocardial oxygen demand."}, "healthy Beagle dogs": {"system": "healthy Beagle dogs", "experiment": "Radiotelemetric pharmacodynamic study, repeated once and twice daily oral administration", "assay_type": "in vivo, dog", "conditions": "for minimum of the first derivative of the left ventricular pressure against time (LVdP/dtmin) / maximum of the first derivative of the left ventricular pressure against time (LVdP/dtmax) / decrease of heart rate: healthy Beagle dogs; for minimum of the first derivative of the left ventricular pressure against time (LVdP/dtmin): from −2700 mmHg/s; for maximum of the first derivative of the left ventricular pressure against time (LVdP/dtmax): increased from 2700 mmHg/s; for decrease of heart rate: 0.3 mg/kg bodyweight oral, 2 mg/ml oral suspension", "method": "A Radiotelemetric Study to Evaluate the Pharmacodynamic Effects of Cilobradine HCl 2 Mg/Ml Oral Suspension after Repeated Once and Twice Daily Oral Administration to Healthy Beagle Dogs\nCilobradine HCl 2 mg/ml oral suspension was given once or twice daily at doses of 0.3 mg/kg bodyweight to conscious, healthy Beagle dogs chronically implanted with a telemetry system. Heart rate, systolic blood pressure, diastolic blood pressure, aortic pressure, left ventricular pressure, electrocardiogram (ECG), and body temperature were recorded. Before each treatment sequence all dogs underwent a 24 hour pre-dosing measurement which served as a baseline (control) measurement. After dosing the dogs were left undisturbed for the duration of the study, which lasted 24 hours, with the exception of the second dosing 10-12 hours after the first treatment."}, "[2]": {"experiment": "Lipophilicity profile of the active substance", "assay_type": "physicochemical", "conditions": "neutral pH versus acidic pH", "text": "Usually, EC/HPMC films show a sustained release behavior that is independent of pH. […] This, together with the coating applied, may have led to a slower release."}, "[3]": {"conditions": "0.3 mg/kg bodyweight once daily and twice daily in comparison to control"}, "[4]": {"conditions": "0.3 mg/kg bodyweight once daily"}, "[5]": {"conditions": "0.3 mg/kg bodyweight twice daily"}}}
{"smiles": "COc1ccc(CCN2CCC[C@H](CN3CCc4cc(OC)c(OC)cc4CC3=O)C2)cc1OC", "note": "[Cilobradine, (+)-3-[(N-(2-(3,4-dimethoxy-phenyl)ethyl)-piperidin-3-(S)-yl)-methyl]-(7,8-dimethoxy-1,3,4,5-tetrahydro-2H-3-benzazepin-2-on)]", "values": [{"measurement": "effect on arterial BP", "setting": "conscious dogs; daily oral 0.3 mg/kg over 5 days", "value": "No effect"}, {"measurement": "HR measured prior drug administration on day 5", "setting": "conscious dogs; daily oral doses of 0.3 mg/kg over 5 days, reduced from 64.0±6.81 bpm", "value": "50.5±5.54", "unit": "bpm"}, {"measurement": "increase of effective refractory time of the atrioventricular (AV) node", "setting": "anesthetized dogs; 0.05 mg/kg i.v.", "value": 30, "unit": "%"}, {"measurement": "increase of effective refractory time of the sinus node", "setting": "anesthetized dogs; 0.05 mg/kg i.v.", "value": 31, "unit": "%"}, {"measurement": "reduction of spontaneous HR", "setting": "anesthetized dogs; 0.05 mg/kg i.v.", "value": 23, "unit": "%"}, {"measurement": "reduction of spontaneous HR", "setting": "anesthetized dogs; 0.1 mg/kg i.v.", "value": 42, "unit": "%"}, {"measurement": "systolic and diastolic pressure", "setting": "anesthetized dogs; 0.05 or 0.1 mg/kg i.v.", "value": "not affected"}, {"measurement": "effect on the Ih channel", "setting": "Ih channel", "value": "can also be blocked"}, {"measurement": "blood pressure", "setting": "[1]", "value": "not affected"}, {"measurement": "decrease of coronary blood flow", "setting": "[1]", "value": "up to 40%"}, {"measurement": "drop of HR", "setting": "[1]", "value": "up to 40%"}, {"measurement": "left ventricular end-diastolic pressure", "setting": "[1]", "value": "rose"}, {"measurement": "renal blood flow", "setting": "[1]", "value": "maintained"}]}
{"smiles": "COc1ccc(CCN2CCC[C@H](CN3CCc4cc(OC)c(OC)cc4CC3=O)C2)cc1OC.Cl", "note": "[cilobradine HCl, (+)-3-[(N-(2-(3,4-dimethoxy-phenyl)ethyl)-piperidin-3-(S)-yl)-methyl]-(7,8-dimethoxy-1,3,4,5-tetrahydro-2H-3-benzazepin-2-on hydrochloride)]", "values": [{"measurement": "inotropic effect (FIG. 1)", "setting": "healthy Beagle dogs; [3]", "value": "positive inotropic effect"}, {"measurement": "lusitropic effect (FIG. 2)", "setting": "healthy Beagle dogs; [3]", "value": "positive lusitropic effect"}, {"measurement": "minimum of the first derivative of the left ventricular pressure against time (LVdP/dtmin)", "setting": "healthy Beagle dogs; [4]", "value": "−3000", "unit": "mmHg/s"}, {"measurement": "maximum of the first derivative of the left ventricular pressure against time (LVdP/dtmax)", "setting": "healthy Beagle dogs; [4]", "value": 3000, "unit": "mmHg/s"}, {"measurement": "decrease of heart rate", "setting": "healthy Beagle dogs; repeated once daily", "value": "approximately 25%"}, {"measurement": "decrease of heart rate", "setting": "healthy Beagle dogs; repeated twice daily", "value": "~30", "unit": "%"}, {"measurement": "minimum of the first derivative of the left ventricular pressure against time (LVdP/dtmin)", "setting": "healthy Beagle dogs; [5]", "value": "−3550", "unit": "mmHg/s"}, {"measurement": "maximum of the first derivative of the left ventricular pressure against time (LVdP/dtmax)", "setting": "healthy Beagle dogs; [5]", "value": 3550, "unit": "mmHg/s"}, {"measurement": "lipophilicity profile", "setting": "[2]", "value": "slightly more lipophilic at neutral pH values"}]}
{"smiles": "COc1ccc(CCN(C)CCCN2CCc3cc(OC)c(OC)cc3CC2=O)cc1OC", "note": "[zatebradine, reference compound]", "values": [{"measurement": "effect on the Ih channel", "setting": "Ih channel", "value": "can also be blocked"}]}
